The values that follow come from patent EP4745130A1, “CRYSTAL FORMS OF TUBULIN-SRC DUAL-TARGETING INHIBITOR, PREPARATION METHOD THEREFOR AND USE THEREOF” (Hubei Bio-Pharmaceutical Industrial Technological Institute …, priority 2023, dated 2025).

Data set [1] in a line: Solid-state stability (XRPD and HPLC after open storage). The note with it: for Crystal form: XRPD. The data set is classed as physicochemical. As to the method: The purity test, dynamic solubility test, and stability test in the assay were measured using an Agilent 1260 high-performance liquid chromatograph, and the salt formation molar ratio of ions was tested by ion chromatography, and the analytical conditions are shown in Table 19 and Table 20. Table 19 High-performance liquid chromatography test conditions

Data set [2] in a line: Hygroscopicity test by dynamic vapor sorption (DVS). The data set is classed as physicochemical. The note with it: DVS, 25°C, 0%RH to 95%RH. The procedure:
The dynamic vapor sorption (DVS) curve was collected on DVS IntrInsic from SMS (surface measurement systems). The relative humidity at 25°C was corrected using the deliquescence points of LiCl, Mg(NO3)2, and KCl. Table 18 DVS test parameters
The percentage change in sample mass was collected under constant temperature at 25°C as humidity varied from 0%RH to 95%RH.

The nature of data set [3]: Suspension competition test between free form crystal forms A and B. The data set is classed as physicochemical. The note with it: in words; at room temperature and 50°C, compared with the free form crystal form B. From the text:
Table 24 Suspension competition test results between free form crystal forms A and B

Data set [4] is described as follows: Dynamic solubility experiment at 37°C (water, SGF, FaSSIF, FeSSIF). The conditions noted are these: for S: solubility: solid feed 10 mg/mL; for pH: pH value of the filtrate.
Method: Rotating mixing was carried out at 37°C at a solid feed concentration of 10 mg/mL (calculated as the compound of Formula I). […] After sampling at each time point, the samples were centrifuged (10000 rpm) and filtered (0.45 µm PTFE filter head), and the HPLC concentration and pH value of the filtrate were measured.
100 mg of NaCl and 50 mg of Triton X-100 were weighed into a 50 mL volumetric flask, and purified water was added to complete dissolution. 816 µL of 1 M hydrochloric acid was added thereto, and the pH was adjusted to 1.8 with 1 M hydrochloric acid or 1 M NaOH solution. Purified water was added to make up to volume.
340 mg of anhydrous NaH2PO4 and 620 mg of NaCl were weighed into a 100 mL volumetric flask. Purified water was added to complete dissolution, followed by addition of 55.44 µL of 50% NaOH solution, and the pH was adjusted to 6.5 using 1M HCl or 1M NaOH solution. Purified water was added to make up to volume. 110 mg of SIF powder was then weighed into a 50 mL volumetric flask, added with the above solution to complete dissolution and make up to volume.
0.82 mL of glacial acetic acid and 1.18 g of NaCl were added to a 100 mL volumetric flask. Purified water was added to complete dissolution, followed by addition of 528 µL of 50% NaOH solution, and the pH was adjusted to 5.0 using 1M HCl or 1M NaOH solution. Purified water was added to make up to volume. 560 mg of SIF powder was then weighed into a 50 mL volumetric flask, added with the above solution to complete dissolution and make up to volume.
The nature of data set [5]: Human liver microsome stability test. The conditions noted are these: human liver microsomes, NADPH, 37°C, 0-45 min. The data set is classed as in vitro ADME. As to the method: The human liver microsome stability test was performed by incubating the compound and human liver microsomes in vitro. First, the compound to be tested was prepared into a 10 mM stock solution in DMSO solvent, and then the compound was diluted to 0.5 mM with acetonitrile. Human liver microsomes (Corning) were diluted with PBS into a microsome/buffer solution, and the solution was used to dilute 0.5 mM compound into a working solution, in which the concentration of the compound was 1.5 µM, and the concentration of human liver microsomes was 0.75 mg/mL. A deep-well plate was taken, 30 µL of the working solution was added per well, and then 15 µL of pre-heated 6 mM NADPH solution was added thereto to initiate a reaction, and the reaction was incubated at 37°C. At 0, 5, 15, 30 and 45 min of the incubation, 135 µL of acetonitrile was added to the corresponding wells to terminate the reaction. After the reaction was terminated with acetonitrile at the last time point of 45 min, the deep-well plate was vortexed and shaken for 10 min (600 rpm), and then centrifuged for 15 min. After centrifugation, the supernatant was collected, and added with purified water in a ratio of 1:1 to perform LC-MS/MS detection. A ratio of a peak area of compound to a peak area of internal standard at each time point was obtained, and the peak area ratios of the compound at 5, 15, 30 and 45 min were compared with the peak area ratio at 0 min to calculate the remaining percentage of the compound at each time point. T1/2 was calculated by using GraphPad 5 software. Table 45: Results of human liver microsome stability test
(In general: Liver microsomes are a subcellular fraction often used to study metabolism.)

Data set [6] in a line: Thermodynamic solubility test. The data set is classed as physicochemical. The note with it: thermodynamic from solid, 4 mg/mL, overnight at room temperature. The procedure: Phosphate buffer saline (PBS) with a pH of 7.4, FeSSIF solution with a pH of 6.5, and FaSSGF solution with a pH of 1.6 were prepared. The compound was accurately weighed and added to prepared phosphate buffer saline with a pH of 7.4, FeSSIF solution with a pH of 6.5, and FaSSGF solution with a pH of 1.6 to prepare into a solution with a concentration of 4 mg/mL. The solution was shaken at a speed of 1000 rpm for 1 hour, and then incubated overnight at room temperature. The incubated solution was centrifuged at 12,000 rpm for 10 minutes to remove undissolved particles, and the supernatant was transferred to a new centrifuge tube. After the supernatant was appropriately diluted, an acetonitrile solution containing internal standard was added, and a standard curve prepared with the same matrix was used for quantification. Table 42: Thermodynamic solubility test results

Data set [7] has as its system Human cutaneous squamous cell carcinoma cell A-431. As to the kind of experiment: Cell proliferation inhibition test, A-431. The note with it: A-431, 96 h, 4 days incubation. In kind it is cell-based. As to the method: (§1) Human cutaneous squamous cell carcinoma cell A-431 (ATCC, CRL-1555) and actinic keratosis patient-derived cell HT 297.T (ATCC, CRL-7782) proliferation assays were used to detect the inhibitory effect of small molecular compounds on cell proliferation.
A-431 cells and HT 297.T cells were cultured in DMEM medium containing 10% fetal bovine serum and grown at 37°C in a 5% CO2 incubator. Cells on logarithmic phase were seeded into a 96-well cell culture plate at 1000 cells/well, 100 µL per well, and then cultured overnight at 37°C in a 5% CO2 incubator. The next day, 100 µL of gradient-diluted 2× test compound solution was added to each well, with DMSO serving as a positive control, and 10 µM staurosporine (Aladdin, S102392) was set as a negative control group. After the addition of the compounds, the culture plate was incubated for another 4 days at 37°C in a 5% CO2 incubator. After incubation, the Steady-Glo® luciferase assay system (Promega, G9243) was used according to the supplier's instructions to measure the fluorescence signal value on the Envision 2104 Multilabel Reader. The inhibition rate was calculated by the following formula, then the curve was plotted with the Log value of the inhibitor concentration as the X-axis and the inhibition rate as the Y-axis, and the IC50 was calculated using Graphpad 8.0. [formula] […]

The test system of data set [8] is actinic keratosis patient-derived cell HT 297.T. The data set can be described thus: Cell proliferation inhibition test, HT 297.T. In kind it is cell-based, Human. The conditions noted are these: Homo sapiens, 96 h; 4 days incubation. As to the method:
as §1
A-431 cells and HT 297.T cells were cultured in DMEM medium containing 10% fetal bovine serum and grown at 37°C in a 5% CO2 incubator. Cells on logarithmic phase were seeded into a 96-well cell culture plate at 1000 cells/well, 100 µL per well, and then cultured overnight at 37°C in a 5% CO2 incubator. The next day, 100 µL of gradient-diluted 2× test compound solution was added to each well, with DMSO serving as a positive control, and 10 µM staurosporine (Aladdin, S102392) was set as a negative control group. After the addition of the compounds, the culture plate was incubated for another 4 days at 37°C in a 5% CO2 incubator. After incubation, the Steady-Glo® luciferase assay system (Promega, G9243) was used according to the supplier's instructions to measure the fluorescence signal value on the Envision 2104 Multilabel Reader. The inhibition rate was calculated by the following formula, then the curve was plotted with the Log value of the inhibitor concentration as the X-axis and the inhibition rate as the Y-axis, and the IC50 was calculated using Graphpad 8.0. [formula] Table 41: Inhibition results of test compounds on proliferation activity of A-431 and HT 297.T cells

The next data set addresses T1, tubulin (Sus scrofa, UniProt P02550+P02554).
T1 construct: purchased cytoskeleton BK011P
The data set can be described thus: Inhibition test of tubulin monomer polymerization (Tubulin polymerization assay kit, fluorescence). The data set is classed as biochemical. The conditions noted are these: 5 µL of 12.5 µM compound solution; fluorescence ex 360 nm / em 420 nm, 37°C; larger value = lower inhibitory efficiency. The procedure: Tubulin polymerization assay kit (cytoskeleton, Cat. # BK011P) was used to conduct the compound inhibition test of tubulin monomer polymerization.
Before the test, the 96-well plate (Corning Costar, Cat. # 3686) supplied with the kit was first placed in a microplate reader (MD, SpectraMax M5) and heated to 37°C, maintained for 10 minutes. The 96-well plate was then removed, and 5 µL of 12.5 µM compound solution or blank solution was added thereto. The 96-well plate was then placed back into the microplate reader and incubated at 37°C for 1 minute to heat the compound solution to 37°C. The 96-well plate was removed and 50 µL of reaction mixture prepared according to the supplier's instructions was quickly added to each well, completing the sample addition within 1 minute to avoid the formation of bubbles. The 96-well plate was then immediately placed back into the microplate reader, shaken for 5 seconds, and using the Kinetic mode, continuous detection was carried out at 37°C for 30 to 60 minutes under the conditions of excitation light at 360 nm and emission light at 420 nm, with detection every 30 seconds. Taking the detection time as the X-axis and the fluorescence signal value as the Y-axis, the tubulin monomer polymerization curve was obtained. As shown in FIG. 66 and Table 40, the larger the Vmax value and the higher the maximum fluorescence signal value of the polymerization curve, the lower the inhibitory efficiency of the compound.

A short description of data set [9]: Pharmacokinetic test in mice. The data set is classed as in vivo. The note with it: mouse, plasma, male ICR mice. The procedure: For the pharmacokinetic test in mice, 3 male ICR mice, 20 to 25 g, were used, fasted overnight, and administered by tail vein injection (1 mg/kg or 5 mg/kg). Blood was collected before the administration, and at 15 min, 30 min, 1 hour, 2 hours, 4 hours, 8 hours, and 24 hours after the administration. Another 3 mice were taken and administered by oral gavage (5 mg/kg), and blood was collected before the administration, and at 15 min, 30 min, 1 hour, 2 hours, 4 hours, 8 hours, and 24 hours after the administration. Blood samples were centrifuged at 6800 g at 2 to 8°C for 6 min, and plasma was collected and stored at -80°C. The plasma at each time point was taken and added with an acetonitrile solution containing internal standard in 3 to 5 times the amount. The mixture was vortexed and mixed for 1 min, and centrifuged at 13,000 rpm at 4°C for 10 min. The supernatant was collected, added with water in 3 times the amount, and mixed. An appropriate amount of the mixture was taken for LC-MS/MS analysis. The main pharmacokinetic parameters were analyzed using WinNonlin 7.0 software with non-compartmental model. Table 43: Results 1 of pharmacokinetic tests in mice

Where [10] appears, read: intravenous injection administration (1 mg/kg).
The mark [11] stands for this setting: oral gavage administration (5 mg/kg).

The structures appear in SMILES notation. ≈ marks a conversion by molar mass, not a printed value. Read-outs that look alike come from different tables or passages of the source.

T1 sequence (P02550 whole entry): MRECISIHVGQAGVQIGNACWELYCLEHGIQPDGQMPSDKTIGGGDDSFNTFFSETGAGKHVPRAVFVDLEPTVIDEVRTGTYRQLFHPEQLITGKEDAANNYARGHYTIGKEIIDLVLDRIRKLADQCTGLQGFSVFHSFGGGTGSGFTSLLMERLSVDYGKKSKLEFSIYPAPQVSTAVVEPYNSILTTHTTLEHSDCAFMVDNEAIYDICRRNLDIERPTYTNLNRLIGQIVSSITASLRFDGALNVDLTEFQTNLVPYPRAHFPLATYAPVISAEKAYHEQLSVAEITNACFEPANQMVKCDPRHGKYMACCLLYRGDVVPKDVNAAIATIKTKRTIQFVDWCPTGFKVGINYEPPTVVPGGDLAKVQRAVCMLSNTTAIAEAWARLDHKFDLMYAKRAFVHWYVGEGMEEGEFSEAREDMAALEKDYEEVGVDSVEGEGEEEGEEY
T1 sequence (P02554 whole entry): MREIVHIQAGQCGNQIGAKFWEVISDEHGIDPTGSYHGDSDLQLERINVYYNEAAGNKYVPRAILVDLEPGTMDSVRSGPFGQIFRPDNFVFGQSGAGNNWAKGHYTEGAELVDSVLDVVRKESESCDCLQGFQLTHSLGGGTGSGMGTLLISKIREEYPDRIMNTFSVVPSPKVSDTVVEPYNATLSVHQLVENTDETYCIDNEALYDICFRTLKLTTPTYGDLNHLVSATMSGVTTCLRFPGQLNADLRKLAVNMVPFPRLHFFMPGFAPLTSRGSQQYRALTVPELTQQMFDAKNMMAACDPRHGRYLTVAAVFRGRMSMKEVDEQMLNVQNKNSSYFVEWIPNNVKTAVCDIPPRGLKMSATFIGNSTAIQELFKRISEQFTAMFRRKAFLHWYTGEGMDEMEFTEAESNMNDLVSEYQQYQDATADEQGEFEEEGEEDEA

With `Cc1cc(OCCN2C[C@H]3COC[C@H]3C2)ccc1-c1ccc(CC(=O)NCc2ccccc2)nc1` [Free form crystal form A], the “Purity (area%)” value in [1] (25°C/60%RH/open, 1 week) is reported as 96.76 area%; in data set [1] (40°C/75%RH/open, 1 week), 96.70 area%; in [1] (Initial), 96.86 area%. The “Relative to initial (%)” value in [1] (25°C/60%RH/open, 1 week) was found to be 99.9%; in data set [1] (40°C/75%RH/open, 1 week), 99.8%. The Crystal form entry in data set [1] (25°C/60%RH/open, 1 week) is given as “Free form crystal form A”; in data set [1] (40°C/75%RH/open, 1 week) it was “Free form crystal form A”. Also, in data set [2], the hygroscopicity result was “almost non-hygroscopic”. Also, in data set [3], the thermodynamic stability entry is “thermodynamically more stable crystal form”. For the same compound, the “S: solubility” value in [4] (FaSSIF, 1 hour, 60 min) came out at 0.72 mg/mL; in data set [4] (FaSSIF, 4 hours, 240 min) it was 0.70 mg/mL; in [4] (FaSSIF, 24 hours, 1440 min), 0.63 mg/mL; in data set [4] (FeSSIF, 1 hour, 60 min), 3.46 mg/mL; in data set [4] (FeSSIF, 4 hours, 240 min), 3.74 mg/mL; in data set [4] (FeSSIF, 24 hours, 1440 min), 3.46 mg/mL. Further, the “S: solubility” value in data set [4] (H2O, 1 hour, 60 min) amounted to 0.06 mg/mL; in [4] (H2O, 4 hours, 240 min) it was 0.08 mg/mL; in data set [4] (H2O, 24 hours, 1440 min) it was 0.06 mg/mL; in [4] (SGF, 1 hour, 60 min), 6.71 mg/mL; in data set [4] (SGF, 4 hours, 240 min) it was 6.77 mg/mL; in data set [4] (SGF, 24 hours, 1440 min), 6.61 mg/mL. Also, the pH in [4] (FaSSIF, 1 hour) is given as 6.6; in data set [4] (FaSSIF, 4 hours), 6.6; in [4] (FaSSIF, 24 hours), 6.6; in data set [4] (FeSSIF, 1 hour), 5.3; in [4] (FeSSIF, 4 hours) it was 5.4; in [4] (FeSSIF, 24 hours) it was 5.4. The pH in [4] (H2O, 1 hour) is on record as 8.6; in data set [4] (H2O, 4 hours) it was 8.6; in data set [4] (H2O, 24 hours), 8.5; in data set [4] (SGF, 1 hour), 5.7; in [4] (SGF, 4 hours) it was 5.8; in [4] (SGF, 24 hours), 5.9.

As to `O=C(Cc1ccc(-c2ccc(OCCN3CCOCC3)cc2)cn1)NCc1ccccc1` [Control compound, Tirbanibulin, reference compound], the half-life at 1 µM in data set [5] was 32.2 min. For the same compound, the solubility stood at 60.5 µg/mL (≈ 140 µM) in data set [6] (FeSSIF solution, FeSSIF (pH 6.5), read-out: Solubility (µg/mL) FeSSIF (pH 6.5)) and 9.77 µg/mL (≈ 22.6 µM) in [6] (phosphate buffer saline (PBS), aqueous buffer, PBS (pH 7.4), read-out: Solubility (µg/mL) PBS (pH 7.4)). The IC50 in data set [7] turned out to be 40.3 nM; in data set [8], 85.4 nM. At tubulin, this compound yielded a Maximum signal value of 611. The AUC(0-t) in data set [9] (setting [10]) stood at 525 ng·h/mL; in [9] (setting [11]) it was 1820 ng·h/mL. Besides, the clearance in data set [9] (setting [10]) is 31.3 mL/min/kg. This compound also displayed a Cmax in [9] (setting [11]) of 1010 ng/mL.

The term half-life denotes how long it takes for the measured level to halve. Low values mean fast loss, high ones slow loss. Usually IC50 stands for the midpoint of a concentration-inhibition curve. The term AUC(0-t) denotes exposure summed from dosing to a finite time, without extrapolation to infinity. Lower therefore signals less exposure. The term clearance denotes a measure of how efficiently the substance is removed, as volume per time. Read a high clearance as efficient removal. Usually Cmax stands for the maximum level reached in the sampled fluid or tissue.
